PMC6254728, “Synthesis and Anti-Human Immunodeficiency Virus Type 1 Activity of (E)-N-Phenylstyryl-N-alkylacetamide Derivatives” (Molecules, 2009)

Each compound was assayed against T1, HIV-1 reverse transcriptase (HIV-1 RT) (HIV-1 M:B_HXB2R, UniProt P04585) (assay: RT ELISA (DIG-labelled reaction mixture, anti-DIG-POD, ABTS; Roche kit)). Settings: 37 °C, 15 h.
T1 construct: gene gag-pol; recombinant HIV-1 RT used with commercial ELISA kit (Roche Molecular Biochemicals); mature chains cut from Gag-Pol polyprotein; with p51 RT
Type: biochemical
Excerpt: RT ELISA (DIG-labelled reaction mixture, anti-DIG-POD, ABTS; Roche kit) on HIV-1 reverse transcriptase (HIV-1 RT)
`O=C(O)P(=O)(O)O` [PFA, reference compound] was tested, and the IC50 was 5 µM. In the case of `CC(=O)N(/C=C/c1ccccc1Br)Cc1cc(F)cc(F)c1` [5i, (E)-N-(2-bromostyryl)-N-3’,5’-difluorobenzylacetamide], the IC50 is reported as 97 ± 13 µM. `CC(=O)N(/C=C/c1ccccc1Br)Cc1c(F)cccc1F` [5h, (E)-N-(2-bromostyryl)-N-2’,6’-difluorobenzylacetamide] was tested, and the IC50 was 295 ± 9 µM. In the case of `CCN(/C=C/c1ccccc1Cl)C(C)=O` [5l, (E)-N-(2-chlorostyryl)-N-ethylacetamide], the IC50 is reported as 521 ± 11 µM. With `CC(=O)N(C)/C=C/c1ccccc1Cl` [5k, (E)-N-(2-chlorostyryl)-N-methylacetamide] the IC50 was 434 ± 44 µM. In the case of `CC(=O)N(/C=C/c1ccccc1Br)C(C)=O` [5f, (E)-N-(2-bromostyryl)-N-acetylacetamide], the IC50 is reported as 320 ± 22 µM. `CC(=O)N(C)/C=C/c1ccccc1Br` [5c, (E)-N-(2-bromostyryl)-N-methylacetamide] was tested, and the IC50 was 339 ± 107 µM. `COc1ccc(/C=C/N(C)C(C)=O)c(OC)c1` [5r, (E)-N-(2,4-dimethoxystyryl)-N-methylacetamide] was tested, and the IC50 was 373 ± 40 µM. Work on `CC(=O)N(C)/C=C/c1ccccc1C` [5p, (E)-N-(2-methylstyryl)-N-methylacetamide] yielded an IC50 of 487 ± 27 µM. With `CC(=O)N(C)/C=C/c1ccccc1F` [5n, (E)-N-(2-fluorostyryl)-N-methylacetamide] the IC50 was 477 ± 107 µM.
